This data set can be described thus: storage test of polymerisable liquid-crystal mixture P-1 with sealant containing photoinitiator, then UV irradiation in PS-VA test cells; RM-1 concentration by HPLC. The settings on record: inferred from RM-1 polymerisation after storage 7 d at 80° C. As to the method: A polymerisable liquid-crystal mixture P-1 consisting of • 1. 99.7% by weight of the nematic liquid-crystal mixture M-1 and • 2. 0.3% by weight of the polymerisable compound RM-1
[drawing 37] is prepared. Three samples of in each case 0.5 g of mixture P-1 are stored together with in each case 1 g of the commercially available sealant Unocol 2094® (APM Technica GmbH, Pürgen-Ummendorf), the latter in each case containing • 1. no photoinitiator • 2. 3.0% by weight of the photoinitiator according to the invention from Example 1 • 3. 3.0% by weight of the commercially available photoinitiator Irgacure651® of the structure shown below in a tightly sealed vial at 80° C. for 7 d with exclusion of air and light. A fourth sample of mixture P-1 is stored under the same conditions without the presence of sealant (blank experiment).
The mixtures are subsequently separated off from the sealant, in each case divided into two parts, introduced into PS-VA test cells and irradiated with a metal halide UV lamp with an intensity of 100 mW/cm^2 at 40° C. for a duration of 60 s or 180 s.
The PS-VA test cells consist of two plane-parallel glass plates having a cell gap of 4 μm, each of which are coated with an ITO electrode and with a polyimide alignment layer on top.
After the irradiation, the concentration of the polymerisable compound RM-1 is determined by HPLC.

As for `COC(OC)(C(=O)c1ccc(OCC(O)CO)cc1)c1ccc(OCC(O)CO)cc1` (centres unmarked) [Example 1, 1,2-Bis[4-(2,3-dihydroxypropoxy)phenyl]-2,2-dimethoxyethanone], the “photoinitiator dissolved out of the sealant into the liquid crystal during the storage test” value is given as “no photoinitiator according to the invention has been dissolved out of the sealant”. The same measure for `COC(OC)(C(=O)c1ccccc1)c1ccccc1` [Irgacure651®]: “considerable amounts of photoinitiator have dissolved in the liquid-crystal mixture”.

(Values after patent publication US10899852B2, “Benzil monoketals and the use thereof” (Merck Patent GmbH, priority 2015, dated 2021).)
